Measurements taken from ChEMBL document CHEMBL3112480, “γ-Alkylidene-γ-lactones and isobutylpyrrol-2(5H)-ones analogues to rubrolides as inhibitors of biofilm formation by gram-positive and gram-negative bacteria” (Bioorg Med Chem Lett, 2014).
Values after ≈ are worked out from the molar mass of the structure shown. Blank lines part the entries; values can stand above or below the compound they belong to.

Columns and labels:
[1] = tested on: Pseudomonas aeruginosa; assay: Antibacterial activity against Pseudomonas aeruginosa ATCC 27853 assessed as effect on planktonic growth at 43.8 ug/ml after 20 hrs relative to control; type: functional
[2] = tested on: Staphylococcus aureus; assay: Antibacterial activity against Staphylococcus aureus ATCC 25923 assessed as effect on planktonic growth at 1.37 ug/ml after 20 hrs relative to control; type: functional
[3] = tested on: Staphylococcus epidermidis; assay: Antibacterial activity against Staphylococcus epidermidis ATCC 35547 assessed as effect on planktonic growth at 0.68 ug/ml after 20 hrs relative to control; type: functional
[4] = tested on: Pseudomonas aeruginosa; assay: Antibacterial activity against Pseudomonas aeruginosa ATCC 27853 assessed as effect on planktonic growth at 0.68 ug/ml after 20 hrs relative to control; type: functional
[5] = tested on: Staphylococcus epidermidis; assay: Antibacterial activity against Staphylococcus epidermidis ATCC 35547 assessed as effect on planktonic growth at 0.34 ug/ml after 20 hrs relative to control; type: functional
[6] = tested on: Pseudomonas aeruginosa; assay: Antibacterial activity against Pseudomonas aeruginosa ATCC 27853 assessed as effect on planktonic growth at 10.9 ug/ml after 20 hrs relative to control; type: functional
[7] = tested on: Pseudomonas aeruginosa; assay: Antibacterial activity against Pseudomonas aeruginosa ATCC 27853 assessed as effect on planktonic growth at 0.17 ug/ml after 20 hrs relative to control; type: functional
[8] = tested on: Staphylococcus aureus; assay: Antibacterial activity against Staphylococcus aureus ATCC 25923 assessed as effect on planktonic growth at 5.5 ug/ml after 20 hrs relative to control; type: functional
[9] = tested on: Staphylococcus epidermidis; assay: Antibacterial activity against Staphylococcus epidermidis ATCC 35547 assessed as effect on planktonic growth at 1.37 ug/ml after 20 hrs relative to control; type: functional
[10] = tested on: Staphylococcus aureus; assay: Antibacterial activity against Staphylococcus aureus ATCC 25923 assessed as effect on planktonic growth at 0.17 ug/ml after 20 hrs relative to control; type: functional
[11] = tested on: Pseudomonas aeruginosa; assay: Antibacterial activity against Pseudomonas aeruginosa ATCC 27853 assessed as effect on planktonic growth at 5.5 ug/ml after 20 hrs relative to control; type: functional
[12] = tested on: Staphylococcus aureus; assay: Antibacterial activity against Staphylococcus aureus ATCC 25923 assessed as effect on planktonic growth at 43.8 ug/ml after 20 hrs relative to control; type: functional
[13] = tested on: Streptococcus mutans; assay: Antibacterial activity against Streptococcus mutans ATCC 25175 assessed as effect on planktonic growth at 1.37 ug/ml after 20 hrs relative to control; type: functional
[14] = tested on: Staphylococcus aureus; assay: Antibacterial activity against Staphylococcus aureus ATCC 25923 assessed as effect on planktonic growth at 10.9 ug/ml after 20 hrs relative to control; type: functional
[15] = tested on: Pseudomonas aeruginosa; assay: Antibacterial activity against Pseudomonas aeruginosa ATCC 27853 assessed as inhibition of biofilm formation after 20 hrs by crystal-violet staining method; type: functional, organism-based
[16] = tested on: Staphylococcus epidermidis; assay: Antibacterial activity against Staphylococcus epidermidis ATCC 35547 assessed as effect on planktonic growth at 2.73 ug/ml after 20 hrs relative to control; type: functional
[17] = tested on: Staphylococcus epidermidis; assay: Antibacterial activity against Staphylococcus epidermidis ATCC 35547 assessed as effect on planktonic growth at 87.5 ug/ml after 20 hrs relative to control; type: functional
[18] = tested on: Pseudomonas aeruginosa; assay: Antibacterial activity against Pseudomonas aeruginosa ATCC 27853 assessed as effect on planktonic growth at 2.73 ug/ml after 20 hrs relative to control; type: functional
[19] = tested on: Streptococcus mutans; assay: Antibacterial activity against Streptococcus mutans ATCC 25175 assessed as effect on planktonic growth at 10.9 ug/ml after 20 hrs relative to control; type: functional
[20] = tested on: Staphylococcus epidermidis; assay: Antibacterial activity against Staphylococcus epidermidis ATCC 35547 assessed as inhibition of biofilm formation after 20 hrs by crystal-violet staining method; type: functional, organism-based
[21] = tested on: Staphylococcus aureus; assay: Antibacterial activity against Staphylococcus aureus ATCC 25923 assessed as effect on planktonic growth at 87.5 ug/ml after 20 hrs relative to control; type: functional
[22] = tested on: Staphylococcus epidermidis; assay: Antibacterial activity against Staphylococcus epidermidis ATCC 35547 assessed as effect on planktonic growth at 21.9 ug/ml after 20 hrs relative to control; type: functional
[23] = tested on: Staphylococcus aureus; assay: Antibacterial activity against Staphylococcus aureus ATCC 25923 assessed as effect on planktonic growth at 21.9 ug/ml after 20 hrs relative to control; type: functional
[24] = tested on: Pseudomonas aeruginosa; assay: Antibacterial activity against Pseudomonas aeruginosa ATCC 27853 assessed as effect on planktonic growth at 0.34 ug/ml after 20 hrs relative to control; type: functional
[25] = tested on: Pseudomonas aeruginosa; assay: Antibacterial activity against Pseudomonas aeruginosa ATCC 27853 assessed as effect on planktonic growth at 21.9 ug/ml after 20 hrs relative to control; type: functional
[26] = tested on: Staphylococcus epidermidis; assay: Antibacterial activity against Staphylococcus epidermidis ATCC 35547 assessed as effect on planktonic growth at 43.8 ug/ml after 20 hrs relative to control; type: functional
[27] = tested on: Streptococcus mutans; assay: Antibacterial activity against Streptococcus mutans ATCC 25175 assessed as effect on planktonic growth at 0.17 ug/ml after 20 hrs relative to control; type: functional
[28] = tested on: Staphylococcus aureus; assay: Antibacterial activity against Staphylococcus aureus ATCC 25923 assessed as effect on planktonic growth at 0.68 ug/ml after 20 hrs relative to control; type: functional
[29] = tested on: Staphylococcus aureus; assay: Antibacterial activity against Staphylococcus aureus ATCC 25923 assessed as effect on planktonic growth at 2.73 ug/ml after 20 hrs relative to control; type: functional
[30] = tested on: Streptococcus mutans; assay: Antibacterial activity against Streptococcus mutans ATCC 25175 assessed as effect on planktonic growth at 2.73 ug/ml after 20 hrs relative to control; type: functional
[31] = tested on: Pseudomonas aeruginosa; assay: Antibacterial activity against Pseudomonas aeruginosa ATCC 27853 assessed as effect on planktonic growth at 1.37 ug/ml after 20 hrs relative to control; type: functional
[32] = tested on: Staphylococcus aureus; assay: Antibacterial activity against Staphylococcus aureus ATCC 25923 assessed as effect on planktonic growth at 0.34 ug/ml after 20 hrs relative to control; type: functional
[33] = tested on: Pseudomonas aeruginosa; assay: Antibacterial activity against Pseudomonas aeruginosa ATCC 27853 assessed as effect on planktonic growth at 87.5 ug/ml after 20 hrs relative to control; type: functional
[34] = tested on: Streptococcus mutans; assay: Antibacterial activity against Streptococcus mutans ATCC 25175 assessed as effect on planktonic growth at 5.5 ug/ml after 20 hrs relative to control; type: functional
[35] = tested on: Streptococcus mutans; assay: Antibacterial activity against Streptococcus mutans ATCC 25175 assessed as effect on planktonic growth at 0.34 ug/ml after 20 hrs relative to control; type: functional
[36] = tested on: Staphylococcus epidermidis; assay: Antibacterial activity against Staphylococcus epidermidis ATCC 35547 assessed as effect on planktonic growth at 5.5 ug/ml after 20 hrs relative to control; type: functional
[37] = tested on: Streptococcus mutans; assay: Antibacterial activity against Streptococcus mutans ATCC 25175 assessed as effect on planktonic growth at 43.8 ug/ml after 20 hrs relative to control; type: functional
[38] = tested on: Streptococcus mutans; assay: Antibacterial activity against Streptococcus mutans ATCC 25175 assessed as effect on planktonic growth at 0.68 ug/ml after 20 hrs relative to control; type: functional
[39] = tested on: Staphylococcus epidermidis; assay: Antibacterial activity against Staphylococcus epidermidis ATCC 35547 assessed as effect on planktonic growth at 10.9 ug/ml after 20 hrs relative to control; type: functional
[40] = tested on: Staphylococcus epidermidis; assay: Antibacterial activity against Staphylococcus epidermidis ATCC 35547 assessed as effect on planktonic growth at 0.17 ug/ml after 20 hrs relative to control; type: functional
[41] = tested on: Streptococcus mutans; assay: Antibacterial activity against Streptococcus mutans ATCC 25175 assessed as effect on planktonic growth at 87.5 ug/ml after 20 hrs relative to control; type: functional
[42] = tested on: Streptococcus mutans; assay: Antibacterial activity against Streptococcus mutans ATCC 25175 assessed as effect on planktonic growth at 21.9 ug/ml after 20 hrs relative to control; type: functional

Compound: COc1ccc(C)cc1C1=C(Br)C(=O)O/C1=C\c1ccccc1Cl
Activity [1]: -2%
Activity [2]: 16.9%
Activity [3]: 0.9%
Activity [4]: -7.8%
Activity [5]: -0.1%
Activity [6]: -10.2%
Activity [7]: -3.8%
Activity [8]: 8.3%
Activity [9]: 8.5%
Activity [10]: 6%
Activity [11]: -5.3%
Activity [12]: 25.3%
Activity [13]: 1.5%
Activity [14]: 10.9%
inhibition [15]: Dose-dependent effect
Activity [16]: -0.7%
Activity [17]: 70.5%
Activity [18]: -4.1%
Activity [19]: -13.6%
inhibition [20]: Dose-dependent effect
Activity [21]: 37%
Activity [22]: 15.8%
Activity [23]: 7.3%
Activity [24]: -8.6%
Activity [25]: -6.8%
Activity [26]: 36.5%
Activity [27]: 1.5%
Activity [28]: 10.9%
Activity [29]: 16.9%
Activity [30]: -4.1%
Activity [31]: -7.5%
Activity [32]: 8.3%
Activity [33]: 11.1%
Activity [34]: 0.8%
Activity [35]: 6.4%
Activity [36]: 3.7%
Activity [37]: 7.4%
Activity [38]: 5.6%
Activity [39]: 13.5%
Activity [40]: -1.6%
Activity [41]: 18.9%
Activity [42]: -3.3%

IC50 ([15]; ATCC 27853, 20 h): 2.5 µg/mL (≈ 4.39 µM)
IC50 ([20]; ATCC 35547, 20 h): > 87.5 µg/mL
Compound: COc1ccc(Br)cc1C1=C(Br)C(=O)N(CC(C)C)/C1=C/c1ccc(Br)cc1
Activity [1]: -6.2%
Activity [2]: 9.4%
Activity [3]: -2.1%
Activity [4]: -5.5%
Activity [5]: 0.4%
Activity [6]: -15.5%
Activity [7]: 0.9%
Activity [8]: 14.9%
Activity [9]: -1.2%
Activity [10]: 2.2%
Activity [11]: -16.1%
Activity [12]: 36.6%
Activity [13]: -3.3%
Activity [14]: 16.8%
inhibition [15]: Dose-dependent effect
Activity [16]: -5.7%
Activity [17]: 11.4%
Activity [18]: -17.1%
Activity [19]: 7.6%
inhibition [20]: Dose-dependent effect
Activity [21]: 68.6%
Activity [22]: -1%
Activity [23]: 27.8%
Activity [24]: 2.6%
Activity [25]: -11.7%
Activity [26]: 7.7%
Activity [27]: 13.9%
Activity [28]: 18.5%
Activity [29]: 15.4%
Activity [30]: 12%
Activity [31]: -19.3%
Activity [32]: 6.3%
Activity [33]: -8.2%
Activity [34]: 10.1%
Activity [35]: 12%
Activity [36]: 2.7%
Activity [37]: 9%
Activity [38]: 14.4%
Activity [39]: 1%
Activity [40]: -3.3%
Activity [41]: 22.8%
Activity [42]: 6%
